Experimental findings from patent US20070112026A1, “Carbostyril derivatives for accelerating salivation” (priority 2003, published 2007) are described below.

The subject of one data set is anesthetized rats. Put plainly: Salivation amount in anesthetized rats after intravenous administration. It is filed as in vivo. The following applies: for Salivation amount: over 20 minutes, average ± standard error; for Salivation amount, comparison with the vehicle-treated group: vehicle = 100. The protocol: The effects of the present active compound on salivation in anesthetized rats were studied as mentioned below. Models for studying salivation were prepared according to the method of Masunaga, et al. (Masunaga, H., et al., Long-lasting salivation induced by a novel Muscarinic receptor agonist SNI-201 in rats and dogs. Eur. J. Pharmacol., 339: 1-9, 1997). Namely, rats had been fasted from the day before the experiment except that the intake of water was freely allowed, and the rats were anesthetized with Nembutal (=pentobarbital sodium). The rats were put down on the back, and the neck was subjected to midline incision. An ATOM anionic fluid suction catheter of 6Fr. was inserted to the air tube in order to keep the airway clear. Next, a polyethylene tube (SP55 Natsume) containing a solution of 10 U/ml heparin in physiological saline was inserted into the […] for administration of a medicament. A 0.03 mg/ml or 0.1 mg/ml solution of the test compound (2-(4-Chlorobenzoylamino)-3-(2-quinolon-4-yl)-propionic acid; general name: Rebamipide) in 2% aqueous sodium hydrogen carbonate solution, and a vehicle (2% aqueous sodium hydrogen carbonate solution) as a control solution were used, and the test compound solution and the control solution in an amount of 1 mL/kg were respectively administered intravenously via the polyethylene tube inserted into the […]. Then, the salivation amount was measured every 10 minutes for 20 minutes with using cotton swabs, and the salivation amount per one minute was calculated from the total salivation amount for this period. In this measurement, the salivation amount was measured in such a way that the dried cotton swab (the weight thereof was previously measured) was inserted into the mouth of rat, and the swab was exchanged with a new dried one in every ten minutes, and the total salivation amount was calculated from the difference in the weight of the swab between before and after inserting into the mouth. The average salivation amount was calculated as measured in the vehicle-treated group (5 animals), the test compound (0.03 mg/kg)-treated group (5 animals) and the test compound (0.1 mg/kg)-treated group (4 animals), and the percentage of the average salivation amount in the test compound-treated groups against that of the vehicle-treated group was calculated.

The next data set relates to non-anesthetized rats. Description: Salivation amount in non-anesthetized rats after intragastric administration (esophagus diverticulum collection). The following applies: saliva collected for 4 hours, average ± standard error. The data set is classed as in vivo. The protocol:
The effects of the present active compound by intragastric administration in non-anesthetized rats with respect to the salivation were studied as mentioned below. Using non-anesthetized rats, the saliva being swallowed for 4 hours on awaking into the diverticulum placed at the esophagus was collected and the salivation amount (g) was measured. Vehicle (0.5% sodium carboxymethyl cellulose solution) or Rebamipide 10, 30 or 100 mg/kg was intragastrically administered once when the esophagus diverticulum was set, and as a result, the average ± standard error of the salivation amount was 0.88±0.23 g (n=7) in the vehicle-treated group, 0.99±0.21 g (n=8) in the Rebamipide (10 mg/kg)-treated group, 1.37±0.26 g (n=7) in the Rebamipide (30 mg/kg)-treated group, and 1.72±0.40 g (n=8) in the Rebamipide (100 mg/kg)-treated group.

Data set [1] concerns patient suffering from mouth dryness accompanying Sjögren's syndrome. Put plainly: Case of a patient suffering from mouth dryness accompanying Sjögren's syndrome (Saxon test). The data set is classed as in vivo, human. The note with it: for Subjective symptoms: 300 mg/day started May 29, 2003; for Salivation amount (Saxon test): 300 mg/day started May 29, 2003 (0.89 g at start), one patient. From the text: Effects of the present compound 2-(4-chlorobenzoyl-amino}-3-(2-quinolon-4-yl)propionic acid on a patient suffering from mouth dryness accompanying Sjögren's syndrome:
(1) Patient: A person.
(2) Chief Complaint: Cotton Mouth, Mattering of Eyes.
The symptoms of the mouth dryness were significant dry of toungue and significant lowering of salivaition (0.52 g in Saxon test). No swelling of parotid gland. Eye dryness was Silmer test (right 2 mm, left 1 mm), Rose bengal test (3+). No inflammation of the eye. Examination findings were ESR 17 mm/hr., WBC 5500/μL, RBC 484×10^4/μL, Hgb 13.4 g/dL, T.P. 8.4 g/dL, Alb 4.4 g/dL, AST 17 IU/mL, ALT 9 IU/mL, Amylase 140 IU/L, CK 46 IU/L, Cr 0.69 mg/dL, BUN 14.0 mg/dL, CRP<0.3 mg/dL, ANA 640 folds (speckled pattern), anti-SS-A antibody 126 times, Anti-SS-B antibody, negative, IgG 2270 mg/dL, IgA 368 mg/dL, IgM 132 mg/dL, and immune complex, Ciq solid-phase method, 3.3 (positive). (5) Clinical Course:
Administration of 2-(4-chloro-benzoylamino)-3-(2-quinolon-4-yl)propionic acid (300 mg/day)was started on May 29, 2003. […] 25, 2003 and then the subjective symptoms were improved. The salivation amount more increased to 1.86 g on Jul. 23, 2003 and then the subjective symptoms were also more improved.

In data set [2] the test system is patients with Sjögren's syndrome. Description: Effects on xerostomia in patients with Sjögren's syndrome (subjective symptom scores, Saxon Test, overall evaluation). The data set is classed as in vivo, human. The following applies: for Salivation amount (Saxon test) / Total scores of subjective symptoms: 100 mg tablet orally three times per day, 21 patients; for Salivation amount (Saxon test): 1.29±1.00 g before administration; for Total scores of subjective symptoms: 9.6±4.1 before administration; for Overall evaluation: "Effective" / Overall evaluation: "Non-effective" / Overall evaluation: "Remarkably effective": of 21 patients. The protocol: The effects of the present active compound on xerostomia in patients with Sjögren's syndrome was tested. The test was carried out for 21 patients (age: 27 to 85 years old, all female) who were diagnosed as surely having Sjögren's syndrome on the basis of Revised Diagnosis Standard for Sjögren's syndrome (issued by Ministry of Health, Labour and Welfare in Japan in 1999). Tablet containing 2-(4-chlorobenzoylamino)-3-(2-quinolon-4-yl)propionic acid (100 mg per tablet) was orally administered three times per day immediately after a meal (one tablet for each time) for 8 weeks. i) Evaluation by patients themselves as to subjective symptoms (e.g. feeling of dryness of the mouth, hydromania, pain in the mouth, taste disorder, difficulty in dietary intake, abnormality of saliva) before administration of tablet, after administration of tablet for 4 weeks and 8 weeks, respectively. […] Based on the salivation amount thus measured, the increasing rate of salivation was determined by the following equation: [formula] The effects of the test compound were evaluated based on both of the improvement of subjective symptoms and the salivation amount, which was classified in three degrees as follows. “Remarkably effective: Both of the improved rate of subjective symptoms and the increasing rate of salivation being more than 50%; “Effective”: Either of the improved rate of subjective symptoms or the increasing rate of salivation being more than 50%; “Non-effective”: Neither the improvement of subjective symptoms nor the increasing of salivation being observed. The experimental results were statistically evaluated in accordance with Wilcoxon's rank test.

Data set [3] has as its system patient with Sjögren's syndrome. Put plainly: Patient record: earlier treatments of the same Sjögren's syndrome patient. The data set is classed as in vivo, human. The following applies: earlier treatment of the patient of Experiment 4. The method, then:
Around February 1999, the patient visited a hospital in view of dryness of mouth and difficulty in tearing. Then, they were diagnosed to have Sjögren's syndrome in view of antinuclear antibody: 160 times, anti-SSR-A antibody: 126 times, Gum test: 8 ml, lowered function of salivary gland, ophthalmic Silmer test (right 4 mm, left 3 mm), dry kerato-conjunctivitis. […] Besides, Salivate spray was also applied but it was not effective and discontinued. After moving their home because of marriage, their hospital was change on May 1, 2003. Before the changing the hospital, an ophthalmic drop containing chondroitin sulfate has frequently been used for treating dry conjunctivitis.

`O=C(NC(Cc1cc(=O)[nH]c2ccccc12)C(=O)O)c1ccc(Cl)cc1` (centres unmarked) [Rebamipide, 2-(4-Chlorobenzoylamino)-3-(2-quinolon-4-yl)-propionic acid]: the Salivation amount stood at 0.262 ± 0.084 mg/min in the data set on anesthetized rats (0.03 mg/kg intravenous, n=5, listed as Test compound); 0.262 ± 0.084 mg/min in the data set on anesthetized rats (0.03 mg/kg intravenous, n=5, listed as test compound); 0.305 ± 0.097 mg/min in the data set on anesthetized rats (0.1 mg/kg intravenous, n=4, listed as Test compound); 0.305 ± 0.097 mg/min with anesthetized rats (0.1 mg/kg intravenous, n=4, listed as test compound); 0.99 ± 0.21 g in the data set on non-anesthetized rats (10 mg/kg intragastric once, n=8); 1.37 ± 0.26 g with non-anesthetized rats (30 mg/kg intragastric once, n=7). Also, the Salivation amount in the data set with non-anesthetized rats (100 mg/kg intragastric once, n=8) is 1.72 ± 0.40 g. Besides, the “Salivation amount, comparison with the vehicle-treated group” value was found to be 205% in the data set with anesthetized rats (0.03 mg/kg intravenous) and 239% with anesthetized rats (0.1 mg/kg intravenous). For the same compound, the Subjective symptoms entry in data set [1] (Jul. 23, 2003) was “more improved”; in data set [1] (Jun. 25, 2003) it was “improved”. Further, the “Salivation amount (Saxon test)” value came out at 1.86 g in data set [1] (Jul. 23, 2003); 1.55 g in data set [1] (Jun. 25, 2003); 1.95 ± 1.21 g in data set [2] (after 4 weeks); 1.93 ± 1.14 g in data set [2] (after 8 weeks). Further, the values for the Effectiveness in data set [2] (after 4 weeks) and in data set [2] (after 8 weeks) were 52.4% and 61.9%, respectively. For the same compound, the “Total scores of subjective symptoms” value in data set [2] (after 4 weeks) worked out at 6.6±3.2; in data set [2] (after 8 weeks), 5.2±2.6. For the same compound, the “Overall evaluation: "Effective"” value in data set [2] (after 4 weeks) was 9 patients; in data set [2] (after 8 weeks), 7 patients. Also, the “Overall evaluation: "Non-effective"” value in data set [2] (after 4 weeks) came out at 10 patients; in data set [2] (after 8 weeks), 8 patients. For the same compound, the “Overall evaluation: "Remarkably effective"” value in data set [2] (after 4 weeks) is listed as 2 patients; in data set [2] (after 8 weeks), 6 patients.
On to `C[C@@H]1O[C@@]2(CS1)CN1CCC2CC1.Cl` [Sebimerine hydrochloride], for which the “Side effects leading to stop of administration” value in data set [3] was “abdominal discomfort and stomach ache”.
